How the values were obtained:
[1] = system: neuronal cells infected with LV-SYN; assay: FLIPR assay of Ca++ levels (Flou-4) in neuronal cells infected with LV-SYN; format: cell-based
[2] = system: neuronal cells infected with LV-SYN; assay: neurite outgrowth (MAP2 antibody) in neuronal cells expressing high levels of SYN; format: cell-based; conditions: 0.1 μM; FIG. 6
Experimental: For the neuronal cell based assays, the neuroblastoma line B103 will be used. […] To infect the neural cells with LV vectors, multiples of infections (MOI) of 0.1, 1 or 5 (based on TU/ml on 293T cells) will be used. After 4-5 days in vitro, the % of transgene-expressing cells will be analyzed. The B103 cells will be maintained at 37° C., 5% CO2 in Dulbecco's modified eagle medium (DMEM, high glucose) supplemented with 10% fetal bovine serum (Irvine Scientific, Irvine, Calif.) and 1% v/v penicillin/streptomycin. For analysis of SYN aggregation cell homogenates will be analyzed by immunoblot with antibodies against SYN and in coverslips by immunocytochemistry. For evaluation of neurite outgrowth coverslips will be immunostained with an antibody against MAP2 and analyzed with a digital Olympus microscope and the Image Quant System.

CCCCNC(=O)C(Cc1c[nH]c2ccccc12)NC(=O)c1cnc(N2CCNCC2)s1 (stereo not drawn) [NPT200-5]
improvement of Ca++ levels ([1]; 0.1 μM concentration): 50%
levels of Ca++ after treatment ([1]; 24 hrs treatment, LV-SYN cells showed 25-30% higher Ca++ than empty vector control, FIG. 7): back to baseline
effect on neurite length extension and cellular morphology [2]: ameliorated the deleterious effects on neurite length extension and improved cellular morphology
